Results reported in the NIST ThermoML archive (doi:10.1021/je900596d).
± gives the expanded uncertainty stated by the source.

Conditions: for mass density: 303.28 K, Fluid (supercritical or subcritical phases), Vibrating tube method

FC(F)=C(F)C(F)(F)F [hexafluoropropene]
Conditions	vapor or sublimation pressure [kPa]
303.22 K, Liquid, Closed cell (Static) method	839.7 ± 1.8

Conditions	mass density [kg/m3]
2.4 kPa	0.14 ± 0.03
4.4 kPa	0.19 ± 0.03
5.3 kPa	0.25 ± 0.03
7.7 kPa	0.38 ± 0.03
11 kPa	0.59 ± 0.03
12.7 kPa	0.7 ± 0.03
13.6 kPa	0.71 ± 0.03
14.5 kPa	0.85 ± 0.03
16.3 kPa	0.86 ± 0.03
17.2 kPa	0.87 ± 0.03
18.1 kPa	1.01 ± 0.03
22.7 kPa	1.19 ± 0.03
24.5 kPa	1.4 ± 0.03
26.4 kPa	1.46 ± 0.03
28.1 kPa	1.59 ± 0.03
30 kPa	1.72 ± 0.03
33.6 kPa	1.94 ± 0.03
37.2 kPa	2.14 ± 0.03
38.2 kPa	2.2 ± 0.03
40 kPa	2.21 ± 0.03
41.8 kPa	2.46 ± 0.03
43.6 kPa	2.43 ± 0.03
47.2 kPa	2.81 ± 0.03
50.8 kPa	3.02 ± 0.03
52.5 kPa	3.04 ± 0.03
56 kPa	3.26 ± 0.03
57.9 kPa	3.38 ± 0.03
59.7 kPa	3.48 ± 0.03
61.4 kPa	3.61 ± 0.03
63.1 kPa	3.73 ± 0.03
64.8 kPa	3.84 ± 0.03
66.5 kPa	3.93 ± 0.03
68.3 kPa	3.99 ± 0.03
73.4 kPa	4.37 ± 0.03
76 kPa	4.49 ± 0.03
78.6 kPa	4.64 ± 0.03
81.2 kPa	4.8 ± 0.03
83.8 kPa	4.98 ± 0.03
86.4 kPa	5.18 ± 0.03
88.9 kPa	5.4 ± 0.03
94.2 kPa	5.64 ± 0.03
96.9 kPa	5.73 ± 0.03
98.7 kPa	5.85 ± 0.03
100.4 kPa	6.09 ± 0.03
103.1 kPa	6.18 ± 0.03
105.7 kPa	6.35 ± 0.03
108.4 kPa	6.54 ± 0.03
113.7 kPa	6.9 ± 0.03
116.4 kPa	6.95 ± 0.03
124.2 kPa	7.43 ± 0.03
126.7 kPa	7.66 ± 0.03
132.1 kPa	7.96 ± 0.03
134.8 kPa	8.17 ± 0.03
137.3 kPa	8.36 ± 0.04
139.9 kPa	8.56 ± 0.04
142.5 kPa	8.68 ± 0.04
145.1 kPa	8.84 ± 0.04
147.8 kPa	9.01 ± 0.04
153 kPa	9.28 ± 0.04
155.7 kPa	9.53 ± 0.04
158.4 kPa	9.61 ± 0.04
163.7 kPa	9.96 ± 0.04
166.2 kPa	10.08 ± 0.04
168.8 kPa	10.29 ± 0.04
171.4 kPa	10.52 ± 0.04
174 kPa	10.66 ± 0.04
176.6 kPa	10.78 ± 0.04
179.2 kPa	10.96 ± 0.04
181.8 kPa	11.08 ± 0.04
184.4 kPa	11.32 ± 0.04
187 kPa	11.51 ± 0.04
194.7 kPa	11.98 ± 0.04
197.5 kPa	12.12 ± 0.04
202.8 kPa	12.46 ± 0.04
206.2 kPa	12.64 ± 0.04
209.6 kPa	12.92 ± 0.04
213 kPa	13.17 ± 0.04
216.4 kPa	13.34 ± 0.04
219.9 kPa	13.6 ± 0.04
223.3 kPa	13.85 ± 0.04
226.8 kPa	14.01 ± 0.04
230.3 kPa	14.3 ± 0.04
233.7 kPa	14.54 ± 0.04
244.3 kPa	15.23 ± 0.04
247.7 kPa	15.41 ± 0.04
251.2 kPa	15.74 ± 0.04
254.6 kPa	15.88 ± 0.04
258.1 kPa	16.18 ± 0.04
261.6 kPa	16.37 ± 0.04
265.1 kPa	16.6 ± 0.04
268.6 kPa	16.83 ± 0.04
275.3 kPa	17.32 ± 0.04
278.7 kPa	17.49 ± 0.04
282.2 kPa	17.78 ± 0.04
285.5 kPa	17.97 ± 0.04
289 kPa	18.22 ± 0.04
295.7 kPa	18.58 ± 0.04
299.1 kPa	18.89 ± 0.04
309 kPa	19.54 ± 0.04
313.2 kPa	19.76 ± 0.04
317.3 kPa	20.15 ± 0.04
321.7 kPa	20.39 ± 0.04
325.7 kPa	20.7 ± 0.04
329.8 kPa	21.01 ± 0.04
338 kPa	21.54 ± 0.04
342 kPa	21.84 ± 0.04
346.2 kPa	22.19 ± 0.04
350.3 kPa	22.34 ± 0.05
358.6 kPa	23.03 ± 0.05
362.7 kPa	23.29 ± 0.05
366.9 kPa	23.58 ± 0.05
375.1 kPa	24.18 ± 0.05
379.2 kPa	24.47 ± 0.05
383.4 kPa	24.75 ± 0.05
387.5 kPa	25.04 ± 0.05
391.7 kPa	25.35 ± 0.05
395.8 kPa	25.63 ± 0.05
399.9 kPa	25.95 ± 0.05
406.9 kPa	26.42 ± 0.05
416.6 kPa	27.12 ± 0.05
421.9 kPa	27.51 ± 0.05
426.1 kPa	27.84 ± 0.05
435.7 kPa	28.54 ± 0.05
441.2 kPa	28.92 ± 0.05
446.7 kPa	29.28 ± 0.05
452.1 kPa	29.75 ± 0.05
457.4 kPa	30.13 ± 0.05
461.6 kPa	30.45 ± 0.05
467 kPa	30.79 ± 0.05
472.4 kPa	31.26 ± 0.06
477.7 kPa	31.6 ± 0.06
488.4 kPa	32.46 ± 0.05
